Key:
[1] = MP-catalyzed peroxynitrite decomposition monitored at 302 nm; format: biochemical; conditions: for Rate Constants for MP-Catalyzed Decomposition of Peroxynitrite (pH 7.4, 37° C.): 100 μM peroxynitrite, absence of added reductants
Description: Peroxynitrite (100 μM) was added to rapidly stirred cuvettes at 37° C. containing the indicated concentrations of MPs in 0.1 M potassium phosphate, pH 7.4. Ascorbate was added to 150 μM where indicated. Peroxynitrite decomposition was monitored at 302 nm using a Hewlett-Packard diode-array spectrophotometer. Apparent rates (kapparents^−1, average of n=3) were plotted versus MP concentration to determine rate constants in M^−1s^−1.
Reactions contained the indicated concentration of FeTCPPin 1.4 ml of 0.1 M potassium phosphate, pH 7.4 in the absence or presence to 150 μM ascorbic acid. Peroxynitrite (100 μM) was added to rapidly stirred cuvettes at 37° C. and the decay of peroxynitrite was monitored continuously at 302 nm. Decay data were fitted to the equation describing first order decay to obtain apparent decay rates (kapparent sec^−1). Apparent decay rates as a function of FeTCPP were fitted by linear regression and the rate constant was obtained slope of the line.
Peroxynitrite (100 μM) decomposition was determined at 302 nm using a Hewlett-Packard diode-array spectrophotometer fitted with a temperature-controlled cuvette chamber and a water-driven cuvette stirrer. Bolus additions of peroxynitrite were made to vigorously stirred cuvettes containing varying concentrations of MPs (see Table III) while data were collected at a rate of ten points/sec. […] Each reaction was repeated three times and only the first additions of peroxynitrite were averaged. Data were exported for fitting and plotting. Apparent rates of peroxynitrite decomposition were plotted as a function of metalloporphyrin concentration (as shown in FIG. 5) to determine concentration-independent rate constants at 37° C.
Rates of peroxynitrite (100 μM) decomposition were determined at different MP concentrations. Ascorbate was added to 150 μM where indicated. […] Apparent rate constants were plotted versus MP concentration (as in FIG. 5A,B) to determine true rate constants in M^−1s^−1±standard error.

[2] = Peroxynitrite-mediated nitration of GYA peptide; format: biochemical; conditions: 2 mM GYA; for effect on nitration: 10 μM MP, pH 7.4; for enhancement of nitration yield: 10 μM MP or SOD subunit, 1 mM CO2, pH 7.4, 37° C.
Description: Nitration efficiency, defined as the moles of nitrated GYA peptide formed per mole of peroxynitrite added, was determined at a fixed concentration of 10 μM MP or Cu,Zn SOD subunit, or 1 mM CO2 as described below. Increasing amounts of peroxynitrite were added in a sequential manner in order to determine whether nitration efficiency varied with concentration and to determine whether nitration catalysis was maintained with multiple additions (see INSET). Nitration efficiency was calculated for each peroxynitrite addition; the values shown are the average of all nine peroxynitrite additions. Absorbance changes were monitored simultaneously at 380, 430, and 460 nm.
(§1) For nitration of GYA peptide (see FIG. 6), reaction solutions contained 2 mM GYA and 10 μM of the indicated MP in 1.4 ml of 0.1 M potassium phosphate, pH 7.4 at 37° C. Comparisons with two previously characterized nitration catalysts, human Cu,Zn superoxide dismutase (hCu,Zn SOD) and carbon dioxide, were made using 10 μM of SOD subunit and 25 mM potassium bicarbonate, respectively, which was pH-adjusted to 7.4. This level of bicarbonate results in rapid saturation of the solution with carbon dioxide (˜1 mM). Solutions were placed into a rapidly stirred cuvette and nine bolus additions (50 μM×3, 100 μM×3, and 200 μM×3) of peroxynitrite were made sequentially while the absorbance was monitored. Increasing amounts of peroxynitrite were added in a sequential manner in order to determine whether nitration efficiency varied with concentration and to determine whether nitration catalysis was maintained with multiple additions (see FIG. 6 inset). Nitration efficiency was defined as the amount of nitropeptide formed per amount of peroxynitrite added and was calculated for each peroxynitrite addition; the values shown are the average of all nine peroxynitrite additions. The absorbance changes associated with nitrotyrosine peptide production were monitored simultaneously at 380, 430, and 460 nm. The extinction coefficients for nitrated GYA at pH 7.4 are 4,400 M^−1cm^−1 at 430 nm and 2,200 M^−1cm^−1 at both 380 and 460 nm. […] Wavelengths used to quantify nitrotyrosine production were chosen to minimize interference by the particular metalloporphyrin used. Experiments using HPA as a nitration target (FIG. 7) contained 8 mM HPA in either 0.1 M potassium phosphate, pH 7.4 or 0.1 M sodium borate, pH 9.1.
The relative abilities of several MPs to enhance nitration of the tripeptide GYA was compared using 10 μM MP and sequential bolus additions of 50 μM (×3), 100 μM (×3), and 200 μM (×3)peroxynitrite (FIG. 6, inset).

cultured motor neurons = experiment: Protection of cultured motor neurons from growth factor withdrawal; format: cell-based; conditions: for level of protection compared with FeTCPP: 72 hr after trophic factor deprivation
Description: Culture Motor neurons were prepared from embryonic day 15 (E15) rat spinal cords by a combination of metrizamide gradient centrifugation and immunopanning with the monoclonal antibody IgG192 (Chandler et al., J. Biol. Chem. 259:6882-6889, 1984) as previously described (Estevez et al., J Neurosci 18:923-931, 1998; Henderson C E, Bloch-Gallego E, Camu W (1995): Purification and culture of embryonic motorneurons. In Cohen J, Wilkin G (eds): Neural Cell Culture: A Practical Approach. Oxford, England: IRL Press, pp 69-81). Long-term cultures of motor neurons were performed as described by Pennica et al. (Pennica et al., Neuron 17:63-74, 1996). Briefly, motor neurons were plated at a density of 200 cells/cm2 on 35 mm dishes precoated with polyornithine-laminin in Neurobasal medium supplemented with B27 (Life Technologies, Grand Island, N.Y.), 2% horse serum, 0.5 mM L-glutamine, 25 μM 2-mercaptoethanol and 25 μM L-glutamate. Every 3-4 days ¾ of the culture medium was replaced by fresh medium lacking L-glutamate and containing sufficient quantities of BDNF or FeTCPP to supplement the 2 ml of medium in the dish. More than 94% of the cells were immunoreactive for the p75 low-affinity neurotrophic receptor (p75NTR) and Islet ½, which are markers for motor neurons. The experiments were repeated at least 2 times using the same lot of Neurobasal medium and B 27 supplement.
The number of motor neurons with neurites longer than 4 soma diameters present in parallel cultures treated with BDNF at a final concentration of 100 pg/ml 24 h after plating or culture media replacement was considered 100% motor neuron survival. FeTCPP was resuspended in complete Neurobasal medium at a 5 mM concentration. Dilutions were performed of the stock solution to add 20 μl per dish.
Rat motor neurons survive many days in culture when brain-derived neurotrophic factor (BDNF) is added to the culture media. Because motor neurons are the cells that preferentially die in ALS, primary cultures of motor neurons represent the best non-animal model of ALS. Withdrawal of BDNF results in apoptotic death of >70% of motor neurons within 24 h. Cell death was correlated with expression of the neuronal form of nitric oxide synthase (nNOS) and the production of peroxynitrite, as evidenced by protein tyrosine nitration. When FeTCPP is added to the culture media in place of BDNF and motor neuron survival is assessed at 24 h, some protection is seen at concentrations as low as 0.01 μM (FIG. 10A). […] Additionally, a comparison of the effect of FETCPP and its tetra-methyl ester derivative, TMeO-FeTCPP, on motor neuron survival at 72 hr.

[3] = system: ALS-SOD1 (G93A) transgenic mice; experiment: Survival of ALS-SOD1 (G93A) transgenic mice; format: in vivo; conditions: G93A mutant of Cu,Zn superoxide dismutase transgene
Description: FIG. 13A: Transgenic mice (n=9) were injected intraperitoneally with 3 mg/kg/day of a low molecular weight (844.6) synthetic iron porphyrin. […] Treatment was continued until such time that signs of diaphragm weakness (labored breathing) necessitated sacrifice. A control group of transgenic mice was treated with vehicle only (phosphate-buffered saline). FIG. 13B: Transgenic mice were injected intraperitoneally with 1 mg/kg/day of a low molecular weight (844.6) synthetic iron porphyrin. Treatment began at day 60 prior to the onset of symptoms. A control group of transgenic mice was treated with vehicle only (phosphate-buffered saline).
Mice transgenic for the G93A mutated form of SOD1 are generally accepted as the standard model of motor neuron disease. […] This compound extended the mean survival time by 13 days (from 127 to 140 days) (FIG. 13A).
A group of G93A mice was treated with 1 mg/kg of FeTCPP intraperitoneally beginning at 60 days of age. As with the control group in FIG. 13A, none of the control group in this test survived past 132 days. However, the probability of survival at 140 days was about 37% and at approximately 180 days survival was still at 20%.

[4] = Ascorbate oxidation by MPs monitored at 266 nm; format: biochemical; conditions: MP 10 μM, 50 μM ascorbate, 0.1 M potassium phosphate pH 7.4, ± standard error, n=3
Description: In order to test the hypothesis that Mn(II)- or Fe(II)-porphyrins would be capable of carrying out two-electron reductions of peroxynitrite and thereby decreasing rather than increasing its reactivity, attempts were made to pre-reduce these transition metal-containing MPs prior to addition of peroxynitrite.
Table V. Ascorbate oxidation by MPs. MPs (10 μM) were added to stirred cuvettes containing 0.1 M potassium phosphate, pH 7.4 and 50 μM ascorbate. Ascorbate oxidation was monitored at 266 nm (ηm=17,700 M^−1cm^−1). Oxidation rates (±standard errors) were determined by fitting the initial linear portion of each curve and averaging the rates (n=3).

[5] = MP-catalyzed nitration of HPA: effect of pH, reductants and serum; format: biochemical
Description: Single additions of 100 μM peroxynitrite were made to reactions containing ascorbate or GSH. Three sequential additions of 100 μM peroxynitrite were made to all other reactions.
as §1, with “This” for “For nitration of GYA peptide (see FIG. 6), reaction solutions contained 2 mM GYA and 10 μM of the indicated MP in 1.4 ml of 0.1 M potassium phosphate, pH 7.4 at 37° C. Comparisons with two previously characterized nitration catalysts, human Cu,Zn superoxide dismutase (hCu,Zn SOD) and carbon dioxide, were made using 10 μM of SOD subunit and 25 mM potassium bicarbonate, respectively, which was pH-adjusted to 7.4. This”

O=C(O)c1ccc(-c2c3nc(c(-c4ccc(C(=O)O)cc4)c4ccc([n-]4)c(-c4ccc(C(=O)O)cc4)c4nc(c(-c5ccc(C(=O)O)cc5)c5ccc2[n-]5)C=C4)C=C3)cc1.[Zn+2] [ZnTBAP, Zinc (II) tetra-(4-benzoic acid)-porphyrin]
Rate Constants for MP-Catalyzed Decomposition of Peroxynitrite (pH 7.4, 37° C.) [1]: 5.3 × 10^3 ± 0.3 M^−1s^−1
effect on nitration [2]: small but reproducible inhibitory effect

O=C1O[C@H]([C@@H](O)CO)C(O)=C1O [ascorbate, ascorbic acid]
acceleration of peroxynitrite decomposition ([1]; ascorbate alone 150 μM, no MP): 16%

O=C=O [carbon dioxide]
enhancement of nitration yield [2]: 1.7 fold

Copper (II) meso-tetra-(4-sulfonatophenyl)-porphyrin [CuTSPP]
effect on nitration [2]: small but reproducible inhibitory effect

Iron (III) meso 5,10,15,20-tetrakis-(4-carboxymethyl-phenyl) porphyrin [FeTMeO-TCPP]
survival of cultured motor neurons deprived of growth factors (cultured motor neurons): prolong survival of cultured motor neurons
level of protection compared with FeTCPP (cultured motor neurons; 0.01 μM): twice the level of protection
level of protection compared with FeTCPP (cultured motor neurons; 0.1 μM): slightly greater level of protection
progression of motor neuron death in mice [3]: slow the progression of motor neuron death

Iron (III) meso-tetra-(4-sulfonatophenyl)-porphyrin [FeTSPP]
Rate Constants for MP-Catalyzed Decomposition of Peroxynitrite (pH 7.4, 37° C.) [1]: 3.3 × 10^5 ± 0.4 M^−1s^−1
enhancement of nitration yield [2]: 5.3 fold
Rate of Ascorbate Oxidation [4]: 4.58 ± 0.21 µM/min
enhancement of nitration yield at pH 9.1 ([5]; 8 mM HPA, 10 μM MP, 0.1 M sodium borate pH 9.1, versus non-catalyzed): 2.8 fold
effect of ascorbate and GSH on nitration enhancement ([5]; concentrations which eliminated non-catalyzed nitration): largely prevented the enhancement of nitration
effect of serum on nitration enhancement ([5]; fresh human serum 1:10 added prior to peroxynitrite): largely eliminated the nitration enhancement

B1: BDNF: brain-derived neurotrophic factor (protein, UniProt P23560 19-247, looked up)
Neurotrophic factor BDNF …: APMKEANIRGQGGLAYPGVRTHGTLESVNGPKAGSRGLTSLADTFEHVIEELLDEDQKVRPNEENNKDADLYTSRVMLSSQVPLEPPLLFLLEEYKNYLDAANMSMRVRRHSDPARRGELSVCDSISEWVTAADKKTAVDMSGGTVTVLEKVPVSKGQLKQYFYETKCNPMGYTKEGCRGIDKRHWNSQCRTTQSYVRALTMDSKKRIGWRFIRIDTSCVCTLTIKRGR
motor neurons that die between day 8 and day 16 (cultured motor neurons; long-term culture in the presence of BDNF): 80%

Reference: patent US6372727B1, “Metalloporphyrin treatment of neurologic disease” (UAB Research Foundation, priority 1999, dated 2002)
